Active and inactive are the calls of the source. The rule behind the calls is not given here.
Assay: E-selectin induction blockers, endothelial cells – imaging, retest plus dose response, cell count, confirmation (AID 1288);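 note: 0% = stimulated vehicle wells and 100% = unstimulated vehicle wells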
Conditions: human endothelial cells, TNFa-induced E-selectin, imaging; at 2 µM; hits give high values

## COc1ccccc1CCNC(=O)c1cnccn1
  inhibition: 16.6% (inactive)

## COc1ccc2nc(NC(=O)CSC3=NCCS3)sc2c1
  inhibition: -0.86% (inactive)

## CCOc1cc(N2CCOCC2)c(OCC)cc1NS(=O)(=O)c1ccc(Cl)s1
  inhibition: 6.76% (inactive)

## COc1ccc(S(=O)(=O)N(CC(N)=O)C2CCCCC2)cc1Cl
  inhibition: 5.95% (inactive)

## CCn1c(SCC(=O)NCc2ccco2)nnc1-c1ccc(N)cc1
  inhibition: 10.3% (inactive)

## COc1ccc(OC)c(S(=O)(=O)N(C)CC(=O)Nc2ccc3c(c2)OCO3)c1
  inhibition: 5.06% (inactive)

## Cc1nc2ccc(NC(=O)c3cc(S(=O)(=O)N4CCOCC4)ccc3C)cc2s1
  inhibition: 16% (inactive)

## COC(=O)c1c(NC(=O)C2COc3ccccc3O2)sc2c1CCN(Cc1ccccc1)C2 (stereo not drawn)
  inhibition: 25.5% (inactive)

## CC(=O)c1c(C)[nH]c(C(=O)Nc2ccccc2N2CCOCC2)c1C
  inhibition: 4.19% (inactive)

## COc1cccc(S(=O)(=O)Nc2ccc(C(=O)N3CCN(C(=O)c4ccco4)CC3)cc2)c1
  inhibition: 31.3% (inactive)

## O=Cc1ccc(OCc2ccccn2)cc1
  inhibition: 15.8% (inactive)

## Cc1ccc(-n2ncc3c(=O)n(CC(=O)N4CCCCCC4)cnc32)cc1
  inhibition: -0.4% (inactive)

## Cn1cccc1/C=C1/C(=O)NC(=O)N(Cc2ccccc2)C1=O
  inhibition: 35.4% (inactive)

## CCS(=O)(=O)NCC(c1ccco1)N1CCN(c2ccccc2)CC1 (stereo not drawn)
  inhibition: 0.44% (inactive)

## CCC(Sc1nc2c(c(=O)n1CC)SC(C)C2)C(=O)OC (stereo not drawn)
  inhibition: 6.81% (inactive)

## COc1ccc(-c2nc(CNS(=O)(=O)c3ccc(OC)c(OC)c3)cs2)cc1
  inhibition: 8% (inactive)

## CC(C)CC1NC(=O)N(CC(=O)N2CCN(S(=O)(=O)c3ccc(Cl)cc3)CC2)C1=O (stereo not drawn)
  inhibition: -2.35% (inactive)

## COc1ccccc1OCCn1cc(C(=O)c2ccco2)c2ccccc21
  inhibition: 12.3% (inactive)

## O=C(O)CCC(=O)Nc1ccc(Br)c(Cl)c1
  inhibition: -3.06% (inactive)

## CC1=C(C(=O)N2CCC3(CC2)OCCO3)C2(CCC(C)CC2)OC1=O (stereo not drawn)
  inhibition: 6.34% (inactive)

## Cc1ccc(NC(=O)c2ccc(OC(=O)CCN3C(=O)c4ccccc4C3=O)cc2)cc1
  inhibition: 42.6% (inactive)

## C1=C(c2ccc(-c3ccccc3)cc2)Nc2ncnn2C1c1ccco1 (stereo not drawn)
  inhibition: 26.2% (inactive)

## O=C(CN(C(=O)CCC(=O)Nc1ccccn1)c1ccc2c(c1)OCO2)NCc1ccco1
  inhibition: 36.3% (inactive)

## COc1ccc(-n2c(SCC(=O)NCc3ccco3)nc3c([nH]c4ccccc43)c2=O)cc1
  inhibition: 1.34% (inactive)

## Cc1ccccc1OCCCC(=O)Nc1ccc(N2CCOCC2)cc1
  inhibition: 4.18% (inactive)

## COCc1cc(C)nc(OCC(=O)N/N=C/c2ccc(-c3cc([N+](=O)[O-])ccc3C)o2)c1C#N
  inhibition: 19% (inactive)

## CCOC(=O)c1ccc(-n2ccnc2)c(NC(=O)c2ccc(Cl)cc2)c1
  inhibition: 11.1% (inactive)

## Cc1cc(C)nc(/N=C2\NC(=O)CC(C(=O)O)N2c2ccc(Cl)cc2Cl)n1 (stereo not drawn)
  inhibition: 0.87% (inactive)

## Cc1cccc(C)c1NC(=O)CN(C)C(=O)/C=C/c1cccs1
  inhibition: 1.62% (inactive)

## C=CCNC(=O)/C=C/c1cccs1
  inhibition: -0.12% (inactive)

## CC1=Nc2ccccc2/C1=C/c1c(N)n2c(S(=O)(=O)CC(C)C)nsc2nc1=O
  inhibition: 2.29% (inactive)

## CCCn1c(SCC(=O)N2c3ccccc3Sc3ccccc32)nc2c1c(=O)n(C)c(=O)n2C
  inhibition: -8.34% (inactive)

## Cc1nn(-c2ccccc2)c2sc(C(=O)O)cc12
  inhibition: 2.23% (inactive)

## O=S(=O)(/N=C(/Nc1ccccc1)c1ccccc1)c1cccs1
  inhibition: 5.98% (inactive)

## COCCNC(=O)c1ccccc1NC(=O)c1cccc([N+](=O)[O-])c1C
  inhibition: 0.34% (inactive)

## COc1ccc(C(=O)NCC(C)C)c(OC)c1
  inhibition: 24.1% (inactive)

## COCCNC(=O)c1ccc(N(C)S(=O)(=O)c2ccc(OC)c(OC)c2)cc1
  inhibition: 0.94% (inactive)

## COC(=O)c1cc(Br)c(=O)n(Cc2ccncc2)c1
  inhibition: 6.86% (inactive)

## COCCCNC(=S)N1CCN(c2ccc([N+](=O)[O-])cc2)CC1
  inhibition: 20% (inactive)

## O=C1CC(c2ccccc2)CC2=C1CN(C1CCCCC1)CN2 (stereo not drawn)
  inhibition: 10.2% (inactive)

## Cn1c(CCNC(=O)c2ccc(Cl)c(Cl)c2)nnc1SCc1ccc(Cl)c(Cl)c1
  inhibition: 6.96% (inactive)

## COc1ccc(/C=N/NC(=O)C(C)n2cnc3ccccc3c2=O)cc1OC (stereo not drawn)
  inhibition: -0.71% (inactive)

## Cc1c(NC(=O)c2c(N)n(-c3ccccc3)c3nc4ccccc4nc23)c(=O)n(-c2ccccc2)n1C
  inhibition: 4.61% (inactive)

## CC(=O)C1=C(C)NC(SCc2cccc3ccccc23)=C(C#N)C1c1ccco1 (stereo not drawn)
  inhibition: 5.13% (inactive)

## Cc1ccc(S(=O)(=O)Nc2ccc(NC(=O)Nc3ccc(F)cc3F)cc2)cc1
  inhibition: 37.3% (inactive)

## COc1cc(-c2nnc(COc3ccc4ccccc4c3)o2)cc(OC)c1OC
  inhibition: 5.08% (inactive)

## CCOc1cc(C(=O)NCCCn2ccnc2)cc(OCC)c1OCC
  inhibition: -4.2% (inactive)

## O=C(Nc1ccc(Cl)cc1)Nc1nnc(CSc2ccc(Cl)cc2)s1
  inhibition: 6.9% (inactive)

## C=CCNC(=S)NNC(=O)c1ccc(Br)cc1
  inhibition: 38.3% (inactive)

## Clc1ccc(Nc2nc3cccnc3s2)cc1
  inhibition: 7.79% (inactive)

## C=CCn1c(O)c(C(C)=Nc2ccc(NC(C)=O)cc2)c(=O)[nH]c1=O
  inhibition: 17.3% (inactive)

## O=C(O)COc1ccc(/C=N/n2cnc3scc(-c4cccs4)c3c2=O)cc1
  inhibition: 5.08% (inactive)

## COc1ccc(NC(=O)c2c(C)oc3c2CCCC3)cc1
  inhibition: 3.37% (inactive)

## C#CCN1C(=O)C(O)(CC(=O)c2cccc(OC)c2)c2ccccc21 (stereo not drawn)
  inhibition: 16% (inactive)

## O=C(CN(CC1CCCO1)C(=O)CCC(=O)Nc1nccs1)NCc1ccc2c(c1)OCO2 (stereo not drawn)
  inhibition: 33.3% (inactive)

## O=C(OCC1CC(c2ccccn2)=NO1)c1ccc(Br)cc1 (stereo not drawn)
  inhibition: 9.31% (inactive)

## CCOc1ccc(NC(=O)/C=C/c2ccc(OC)cc2)c([N+](=O)[O-])c1
  inhibition: 13.8% (inactive)

## Cc1ccc(C(=O)Nc2ccc(O)cc2C(=O)O)cc1
  inhibition: 3% (inactive)

## CC(C)CC(=O)n1sc(NC(=O)c2ccccc2)nc1=O
  inhibition: -4.08% (inactive)

## CCOC(=O)c1sc(=N)n(-c2ccc(OC)cc2)c1C
  inhibition: -1.33% (inactive)

## O=C(Cc1ccc(-c2ccccc2)cc1)NCCN1CCOCC1
  inhibition: 2.16% (inactive)

## Cc1cc(NC(=O)CCC(=O)N(CC(=O)NCC2CCCO2)c2ccccc2C)no1 (stereo not drawn)
  inhibition: 14.8% (inactive)

## COc1ccccc1NC(=O)CSc1nnc2ccc(-c3cccnc3)nn12
  inhibition: -0.72% (inactive)

## Cc1ccc(CNc2ccc(S(=O)(=O)N3CCOCC3)cc2[N+](=O)[O-])cc1
  inhibition: 0.77% (inactive)

## CC(NC(=O)COc1cccc(Br)c1)C(=O)O (stereo not drawn)
  inhibition: 24.6% (inactive)

## CC(C)c1c(O)cc(-c2ccncc2)n(-c2ccc(Cl)cc2)c1=O
  inhibition: 3.17% (inactive)

## O=C(NNc1nc2ccccc2s1)Nc1ccccc1
  inhibition: 5.88% (inactive)

## CCCn1nnc(NC(=O)c2cccc(OCC(C)C)c2)n1
  inhibition: 27.2% (inactive)

## CCCCCn1c(SCC#N)nc2cc(C(=O)NCC3CCCO3)ccc2c1=O (stereo not drawn)
  inhibition: 7.32% (inactive)

## Cc1ccc(N2C(=O)[C@@H]3C(C(=O)CCN4C(=O)c5ccccc5C4=O)=NN[C@@H]3C2=O)cc1
  inhibition: 6.74% (inactive)

## CN1C(=O)S/C(=C\c2ccccc2OCc2ccc(C(=O)O)cc2)C1=O
  inhibition: 15.9% (inactive)

## O=C(CCc1ccccc1)NCCC1=CCCCC1
  inhibition: 6.52% (inactive)

## COc1ccc(CCNC(=O)CSc2nc(-c3ccco3)cc(C(F)(F)F)n2)cc1OC
  inhibition: 18.9% (inactive)

## COc1ccc(C(=O)C(CN2CCOCC2)c2ccccc2)cc1F (stereo not drawn)
  inhibition: 0.43% (inactive)

## N/C(=N\c1nc(CSc2ccc(Cl)cc2)cc(=O)[nH]1)Nc1cccc2ccccc12
  inhibition: 6.58% (inactive)

## CN(C)CC1CSCCC1(O)c1ccc(Cl)cc1 (stereo not drawn)
  inhibition: 20.4% (inactive)

## COc1ccc(C(=O)/C=C/Nc2ccc([N+](=O)[O-])cc2C)c(OC)c1
  inhibition: 26.8% (inactive)

## COc1cccc(N2CC(C(=O)Nc3nnc(SCC(=O)c4ccccc4)s3)CC2=O)c1 (stereo not drawn)
  inhibition: 9.31% (inactive)

## COCCCNC(=O)CN1C(=O)c2ccccc2C1=O
  inhibition: 5.47% (inactive)

## COc1ccc2[nH]c(C)c(CCN3C(=O)C4C5C=CC(C5)C4C3=O)c2c1 (stereo not drawn)
  inhibition: 9.54% (inactive)

## COc1ccc(NC(=O)N(CCCN2CCOCC2)Cc2cccnc2)c(OC)c1
  inhibition: 3.7% (inactive)

## O=C1CC(c2ccccc2)SC(N(c2ccccc2)c2ccccc2)=N1 (stereo not drawn)
  inhibition: 26.1% (inactive)

## Cc1cccc(OCCCC(=O)O)c1
  inhibition: 4.01% (inactive)

## Cc1ccc2oc(Nc3nc(-c4ccccc4)cc(=O)[nH]3)nc2c1
  inhibition: 10.7% (inactive)

## Cc1cc(=O)oc2cc(OCC(=O)OCC(=O)NCc3ccc4c(c3)OCO4)ccc12
  inhibition: 22.5% (inactive)

## O=c1cc(-c2ccccc2)c2ccccc2[nH]1
  inhibition: 35% (inactive)

## CN(C)c1ccc(NC(=S)NC(=O)/C=C/c2ccc(Cl)cc2)cc1
  inhibition: 2.61% (inactive)

## CC(C)Cc1nnc(NS(C)(=O)=O)s1
  inhibition: 4.19% (inactive)

## Cc1ccc(-n2c(SCC(=O)Nc3nccs3)nc3c(c2=O)SCC3)cc1
  inhibition: 5.08% (inactive)

## CC(=O)N[C@@H](Cc1c[nH]c2ccccc12)C(=O)OCC(=O)Nc1ccc(Cl)c(S(=O)(=O)N(C)C)c1
  inhibition: 7.98% (inactive)

## O=c1[nH]cnc2cc(-c3ccccc3)sc12
  inhibition: 7.67% (inactive)

## O=C(NCc1nc(-c2ccccc2)no1)c1ccc2c(c1)OCO2
  inhibition: 24.1% (inactive)

## N/C(=N\S(=O)(=O)c1cccs1)c1ccccc1
  inhibition: 13.7% (inactive)

## Cc1ccc(O)c(NC(=S)NC(=O)c2ccc(-c3ccc(Cl)cc3)o2)c1
  inhibition: 20.3% (inactive)

## CC(c1ccco1)N(C(=O)C12CC3CC(CC(C3)C1)C2)c1ccccn1 (stereo not drawn)
  inhibition: 5.6% (inactive)

## O=C(Nc1nnc(SCc2ccccc2)s1)c1cccc([N+](=O)[O-])c1
  inhibition: 6.01% (inactive)

## CCn1c(=O)cc(SCC(=O)N2CCN(C3CCCCC3)CC2)c2ccccc21
  inhibition: 16.9% (inactive)

## O=C(CCCN1CCOCC1)c1ccc2c(c1)OCCO2
  inhibition: 2.27% (inactive)
